Results as given in article PMC9510826, “Catalytic promiscuity of O-methyltransferases from Corydalis yanhusuo leading to the structural diversity of benzylisoquinoline alkaloids” (Horticulture Research, 2022).

Biological target: T1, CyOMT2 (Corydalis yanhusuo, UniProt Z9M545XIG0, L253C)
T1 sequence (Z9M545XIG0 1-349 L253C): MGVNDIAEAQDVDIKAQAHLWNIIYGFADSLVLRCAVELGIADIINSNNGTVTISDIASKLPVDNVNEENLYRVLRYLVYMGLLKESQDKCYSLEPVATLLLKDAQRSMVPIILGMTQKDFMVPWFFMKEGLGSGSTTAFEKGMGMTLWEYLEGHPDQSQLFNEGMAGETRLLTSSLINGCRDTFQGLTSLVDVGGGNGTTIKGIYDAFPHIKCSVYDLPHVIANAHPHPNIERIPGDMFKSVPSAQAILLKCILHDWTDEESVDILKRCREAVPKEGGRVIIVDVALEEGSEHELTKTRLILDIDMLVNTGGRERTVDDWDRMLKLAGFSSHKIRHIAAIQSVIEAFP
Assay: UPLC product quantification, Michaelis-Menten fit
Type: biochemical
Settings: 200 μM SAM, 30 min
From the text: UPLC product quantification, Michaelis-Menten fit on CyOMT2

SMILES	Km (50 mM phosphate pH 7.0, 40°C) [µM]	Km (50 mM phosphate pH 7.5, 45°C) [µM]
COc1cc2c(cc1O)[C@@H]1Cc3ccc(OC)c(O)c3CN1CC2 [compound 15, scoulerine]	12.2 ± 1.72	
Oc1ccc(C[C@@H]2NCCc3cc(O)c(O)cc32)cc1 [compound 1, norcoclaurine]		19.4 ± 3.39
COc1cc2c(cc1O)CC[n+]1cc3c(OC)c(OC)ccc3cc1-2 [compound 14, jatrorrhizine]	34.8 ± 3.7	
